{
  "source": "patent US20080241215A1",
  "about": "“LOCAL VASCULAR DELIVERY OF PROBUCOL ALONE OR IN COMBINATION WITH SIROLIMUS TO TREAT RESTENOSIS, VULNERABLE PLAQUE, AAA AND STROKE” (priority 2007, published 2008)",
  "key": {"[1]": {"test_system": "human coronary artery smooth muscle cells", "assay": "Proliferation of cultured human coronary artery smooth muscle cells", "assay_type": "cell-based", "description": "The multiple curves represent various concentrations of topotecan ranging from zero to three hundred nanomolar concentrations. […]\nCurve 8702 illustrates the percent inhibition for various concentrations. In FIG. 88, the six curves 8802, 8804, 8806, 8808, 8810 and 8812 represent various concentrations of PX867 with various concentrations of sirolimus. […] More specifically, curve 8812 illustrates the percent inhibition for a 240 nM PX-867 concentration. […] This may be compared to curve 8804 which represents a 15 nM PX-867 concentration."}, "cell viability": {"test_system": "cell viability", "assay": "Cell viability assay", "assay_type": "cell-based", "excerpt": "The multiple curves represent various concentrations of topotecan ranging from zero to three hundred nanomolar concentrations.\nThe multiple curves represent various concentrations of etoposide ranging from zero to eight hundred nanomolar concentrations."}, "[2]": {"assay": "Drug concentration in liquid formulations (liquid chromatography)", "assay_type": "physicochemical", "conditions": "ethanol, Vitamin E TPGS and water formulation, ethanol less than two percent", "procedure": "The concentrations of each constituent were determined by liquid chromatography and are presented as weight by volume figures.\nIn another exemplary embodiment, the liquid formulation of sirolimus comprises water and ethanol as co-solvents and Vitamin E TPGS as the excipient. The liquid formulation was created utilizing the following process. Two hundred milligrams of sirolimus and two grams of ethanol were added to a pre-weighed twenty milliliter scintillation vial. The vial was vortexed and sonicated until the sirolimus was completely dissolved. Approximately six hundred milligrams of Vitamin E TPGS was then added to the solution of ethanol and sirolimus. The vial was vortexed again until a clear yellowish solution was obtained. Nitrogen gas was then used to reduce the amount of ethanol in the vial to approximately two hundred twenty-nine milligrams. In a separate vial, three hundred milligrams of Vitamin E TPGS was dissolved in eleven milliliters of purified water while undergoing vortexing. The Vitamin E TPGS and water solution was then added to the first vial containing the sirolimus, Vitamin E TPGS and ethanol. The first vial was then vortexed vigorously and continuously for three minutes.\nIn another exemplary embodiment, a liquid formulation of CCI-779, a sirolimus analog, is prepared utilizing ethanol, Vitamin E TPGS and water. […]"}, "[3]": {"assay": "Porcine drug elution PK studies (in vivo release from stent coating)", "conditions": "for drug remaining in the drug coating: after eight (8) days of implantation, single-layer sirolimus/cilostazol EVA/BMA coating with 100 μg BMA overcoat (FIG. 83)"}, "[4]": {"test_system": "human coronary artery smooth muscle cell", "assay": "MTS cytotoxicity assay", "assay_type": "cell-based", "conditions": "concentrations up to 30,000.00 nanomolar", "excerpt": "Typically, a control is utilized to determine baseline toxicity."}, "[5]": {"assay": "In vitro release kinetics from stent coating", "assay_type": "physicochemical", "conditions": "single-layer sirolimus/cilostazol EVA/BMA coating with 100 μg BMA overcoat (FIG. 83)", "excerpt": "In the study, the rapamycin and Panzem® are incorporated into different layers of a polymeric coating. In this study, a Bx Velocity stent is coated with a four hundred microgram inner layer and a three hundred microgram outer layer. The inner layer comprises forty-five percent Panzem® and fifty-five percent EVA/BMA (50/50). […] There is no topcoat of just polymer in this study. Curve 7100 illustrates the release kinetics of Panzem® from the coating.\nAnother critical parameter for the performance of the thrombus resistance of a device coated with cilostazol is the duration of the drug release from the coating. This is of particular significance in the two weeks after device implantation. In the porcine drug elution PK studies of the dual drug eluting coating, both cilostazol and sirolius were slowly released from the coating, resulting in a sustained drug release profile. The purpose of the porcine PK study is to assess the local pharmacokinetics of a drug eluting stent at a given implantation time. Normally three stents are implanted in three different coronary arteries in a pig for a given time point and then retrieved for total drug recovery analysis. […] The stents are extracted and the total amount of drug remaining on the stents is determined by analysis utilizing HPLC (high performance liquid chromatography) for total drug amount. […]"}, "tumor cell lines": {"test_system": "tumor cell lines", "conditions": "tumor cell lines (Woo et al. 2002); cited from earlier work"}},
  "data": [
    {"smiles": "COc1cc([C@@H]2c3cc4c(cc3[C@@H](O[C@@H]3O[C@@H]5CO[C@@H](C)O[C@H]5[C@H](O)[C@H]3O)[C@H]3COC(=O)[C@H]23)OCO4)cc(OC)c1O", "note": "[etoposide]", "values": [
      {"measurement": "effect on anti-proliferative rapamycin dose response curves", "setting": "[1]; non-synchronized cells, two percent fetal bovine serum, etoposide zero to eight hundred nanomolar", "result": "potentiate the anti-proliferative activity of rapamycin"},
      {"measurement": "cytotoxicity in cell viability assay", "setting": "cell viability; concentrations up to ten micromolar", "result": "non-cytotoxic"}
    ]},
    {"smiles": "CO[C@H]1C[C@@H]2CC[C@@H](C)[C@@](O)(O2)C(=O)C(=O)N2CCCC[C@H]2C(=O)O[C@H]([C@H](C)C[C@@H]2CC[C@@H](OC(=O)C(C)(CO)CO)[C@H](OC)C2)CC(=O)[C@H](C)/C=C(\\C)[C@@H](O)[C@@H](OC)C(=O)[C@H](C)C[C@H](C)/C=C/C=C/C=C/1C", "note": "[CCI-779]", "values": [
      {"measurement": "concentration in the final solution (HPLC assay)", "setting": "[2]", "result": 15000, "unit": "µg/mL"}
    ]},
    {"smiles": "Nc1nc(Cl)nc2c1ncn2[C@H]1C[C@H](O)[C@@H](CO)O1", "note": "[Cladribine, 2-chlorodeoxyadenosine]", "values": [
      {"measurement": "inhibition of human coronary artery smooth muscle cell proliferation", "setting": "[1]; non-synchronized cells, two percent fetal bovine serum", "result": "completely inhibits"},
      {"measurement": "effect on anti-proliferative rapamycin dose response curves", "setting": "[1]; non-synchronized cells, two percent fetal bovine serum, cladribine zero to nine hundred nanomolar", "result": "potentiate the anti-proliferative activity of rapamycin"},
      {"measurement": "in vivo elution relative to rapamycin", "setting": "[3]; EVA/BMA basecoat with rapamycin and cladribine, 200 μg BMA topcoat, Yorkshire pigs", "result": "elutes more rapidly than rapamycin"}
    ]},
    {"smiles": "COc1cc2c(cc1O)CC[C@@H]1[C@@H]2CC[C@]2(C)[C@@H](O)CC[C@@H]12", "note": "[Panzem®, 2-methoxyestradiol]", "values": [
      {"measurement": "anti-proliferative activity", "setting": "[1]; synchronized cells, two percent fetal bovine serum", "result": "extremely effective inhibitor"},
      {"measurement": "effect on percent inhibition by rapamycin", "setting": "[1]; synchronized cells, two percent fetal bovine serum, Panzem zero to 100 micromolar", "result": "increases the percent of inhibition of rapamycin alone"},
      {"measurement": "cell survival (MTS assay)", "setting": "[4]", "result": "do not reduce human coronary artery smooth muscle cell survival"}
    ]},
    {"smiles": "COc1c(C)c2c(c(O)c1C/C=C(\\C)CCC(=O)O)C(=O)OC2", "note": "[mycophenolic acid]", "values": [
      {"measurement": "effect on anti-proliferative rapamycin dose response curve", "setting": "[1]; non-synchronized cells, two percent fetal bovine serum, mycophenolic acid zero to one thousand nanomolar", "result": "potentiates the anti-proliferative activity of rapamycin"},
      {"measurement": "in vivo elution relative to rapamycin", "setting": "[3]; EVA/BMA basecoat with 180 μg rapamycin and 180 μg mycophenolic acid, BMA topcoat 0-200 μg", "result": "elutes more completely over a shorter duration than the rapamycin"}
    ]},
    {"smiles": "CC[C@@]1(O)C(=O)OCc2c1cc1n(c2=O)Cc2cc3c(CN(C)C)c(O)ccc3nc2-1", "note": "[topotecan]", "values": [
      {"measurement": "effect on anti-proliferative rapamycin dose response curves", "setting": "[1]; synchronized cells, two percent fetal bovine serum, topotecan zero to three hundred nanomolar", "result": "potentiate the anti-proliferative activity of rapamycin"},
      {"measurement": "cytotoxicity in cell viability assay", "setting": "cell viability; concentrations up to one micromolar", "result": "non-cytotoxic"}
    ]},
    {"smiles": "O=C1CCc2cc(OCCCCc3nnnn3C3CCCCC3)ccc2N1", "note": "[cilostazol, 6[4-(1-cyclohexyl-1H-tetrazol-5-yl)-butoxy]-3,4-dihydro-2-(1H)-quinolinone]", "values": [
      {"measurement": "drug remaining in the drug coating", "setting": "[3]", "result": "~80", "unit": "%"},
      {"measurement": "in vitro drug release", "setting": "[5]", "result": "~35", "unit": "%"}
    ]},
    {"smiles": "CO[C@H]1C[C@@H]2CC[C@@H](C)[C@@](O)(O2)C(=O)C(=O)N2CCCC[C@H]2C(=O)O[C@H]([C@H](C)C[C@@H]2CC[C@@H](O)[C@H](OC)C2)CC(=O)[C@H](C)/C=C(\\C)[C@@H](O)[C@@H](OC)C(=O)[C@H](C)C[C@H](C)/C=C/C=C/C=C/1C", "note": "[rapamycin]", "values": [
      {"measurement": "drug remaining in the drug coating", "setting": "[3]", "result": "~80", "unit": "%"}
    ]},
    {"smiles": "COC[C@H]1OC(=O)/C(=C\\N2CCCC2)C2=C(O)C(=O)C3=C([C@H](OC(C)=O)C[C@]4(C)C(=O)CC[C@@H]34)[C@]21C", "note": "[PX-867]", "values": [
      {"measurement": "inhibition of coronary artery smooth muscle cell proliferation", "setting": "[1]; PX867 alone at a concentration of about 10^−6", "result": "one hundred"},
      {"measurement": "combination effect with sirolimus on percent inhibition", "setting": "[1]; cultured cells, PX-867 15 nM to 240 nM with various sirolimus concentrations", "result": "strong synergistic effect"}
    ]},
    {"smiles": "CC(/C=C/C(=O)NO)=C\\[C@@H](C)C(=O)c1ccc(N(C)C)cc1", "note": "[trichostatin A]", "values": [
      {"measurement": "inhibition of human coronary artery smooth muscle cell proliferation", "setting": "[1]; in vitro cell culture studies", "result": "completely inhibit"},
      {"measurement": "IC50", "setting": "[1]; in vitro cell culture studies, read-out: anti-proliferative IC50", "result": "~6", "unit": "nM"},
      {"measurement": "anti-proliferative IC50's", "setting": "tumor cell lines", "result": "low nM range"}
    ]}
  ]
}
